Measurements as given in publication PMC4774911, “Biochemical Screening of Five Protein Kinases from Plasmodium falciparum against 14,000 Cell-Active Compounds” (PLoS ONE, 2016).
Several values for one entry are separate records, joined by “and”; a condition that tells them apart may be missing. Identical values can stand only once.

Columns and labels:
Assay in all cases: biochemical
AURKA = target: T1, AURKA (Homo sapiens, UniProt O14965)
T1 sequence (O14965 1-403): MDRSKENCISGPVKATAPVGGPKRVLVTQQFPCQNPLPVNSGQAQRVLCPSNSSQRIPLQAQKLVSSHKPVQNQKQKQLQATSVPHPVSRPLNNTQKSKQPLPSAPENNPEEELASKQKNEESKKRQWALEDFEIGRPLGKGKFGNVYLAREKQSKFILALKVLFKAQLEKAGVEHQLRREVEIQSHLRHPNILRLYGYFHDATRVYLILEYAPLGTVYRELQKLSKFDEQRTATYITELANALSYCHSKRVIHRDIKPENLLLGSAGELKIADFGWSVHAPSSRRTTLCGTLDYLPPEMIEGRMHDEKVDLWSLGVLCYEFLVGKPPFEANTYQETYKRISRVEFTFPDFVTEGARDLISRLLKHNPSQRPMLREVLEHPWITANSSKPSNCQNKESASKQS

CAMKK2 = CAMKK2 (Homo sapiens, UniProt Q96RR4)
CAMKK2, sequence (Q96RR4 whole entry): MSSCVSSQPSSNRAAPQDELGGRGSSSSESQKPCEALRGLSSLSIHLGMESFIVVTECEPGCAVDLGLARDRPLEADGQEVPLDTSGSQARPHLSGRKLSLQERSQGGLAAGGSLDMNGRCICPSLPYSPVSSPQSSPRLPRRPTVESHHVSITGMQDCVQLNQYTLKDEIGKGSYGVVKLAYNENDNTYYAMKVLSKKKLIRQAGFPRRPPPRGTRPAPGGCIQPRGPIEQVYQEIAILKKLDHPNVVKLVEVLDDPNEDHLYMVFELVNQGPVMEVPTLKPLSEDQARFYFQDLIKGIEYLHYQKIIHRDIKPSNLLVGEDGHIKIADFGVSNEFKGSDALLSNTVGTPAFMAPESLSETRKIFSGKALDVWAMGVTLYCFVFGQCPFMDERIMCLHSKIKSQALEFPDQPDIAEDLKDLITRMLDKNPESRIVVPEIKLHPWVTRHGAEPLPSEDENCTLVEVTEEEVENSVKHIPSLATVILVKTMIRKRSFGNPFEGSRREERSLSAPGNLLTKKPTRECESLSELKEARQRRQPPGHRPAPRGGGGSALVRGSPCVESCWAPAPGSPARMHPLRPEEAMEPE

CSNK2A2 = CSNK2A2 (Homo sapiens, UniProt P19784)
CSNK2A2, sequence (P19784 whole entry): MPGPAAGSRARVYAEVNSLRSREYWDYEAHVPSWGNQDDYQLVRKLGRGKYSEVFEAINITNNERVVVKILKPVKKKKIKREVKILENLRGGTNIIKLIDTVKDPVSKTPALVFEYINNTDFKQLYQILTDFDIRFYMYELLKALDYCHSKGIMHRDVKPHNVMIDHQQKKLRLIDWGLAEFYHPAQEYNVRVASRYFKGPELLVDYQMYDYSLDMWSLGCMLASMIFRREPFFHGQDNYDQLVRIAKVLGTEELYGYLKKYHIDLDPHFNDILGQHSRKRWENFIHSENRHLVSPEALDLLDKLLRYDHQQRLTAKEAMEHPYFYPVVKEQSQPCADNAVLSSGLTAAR

MAPK9 = MAPK9 (Homo sapiens, UniProt P45984)
MAPK9, sequence (P45984 whole entry): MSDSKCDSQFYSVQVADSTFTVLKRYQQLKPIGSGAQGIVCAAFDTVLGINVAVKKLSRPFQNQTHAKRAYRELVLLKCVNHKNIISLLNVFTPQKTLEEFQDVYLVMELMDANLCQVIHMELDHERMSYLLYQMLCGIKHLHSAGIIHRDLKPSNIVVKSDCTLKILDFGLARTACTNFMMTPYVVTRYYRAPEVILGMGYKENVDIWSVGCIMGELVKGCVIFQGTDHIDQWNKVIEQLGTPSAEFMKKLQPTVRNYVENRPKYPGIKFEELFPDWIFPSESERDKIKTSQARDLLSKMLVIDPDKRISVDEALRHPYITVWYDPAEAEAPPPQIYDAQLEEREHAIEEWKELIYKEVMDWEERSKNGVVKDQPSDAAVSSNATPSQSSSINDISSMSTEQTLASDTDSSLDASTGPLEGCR

MERTK = target: T2, MERTK (Homo sapiens, UniProt Q12866)
T2 sequence (Q12866 1-999): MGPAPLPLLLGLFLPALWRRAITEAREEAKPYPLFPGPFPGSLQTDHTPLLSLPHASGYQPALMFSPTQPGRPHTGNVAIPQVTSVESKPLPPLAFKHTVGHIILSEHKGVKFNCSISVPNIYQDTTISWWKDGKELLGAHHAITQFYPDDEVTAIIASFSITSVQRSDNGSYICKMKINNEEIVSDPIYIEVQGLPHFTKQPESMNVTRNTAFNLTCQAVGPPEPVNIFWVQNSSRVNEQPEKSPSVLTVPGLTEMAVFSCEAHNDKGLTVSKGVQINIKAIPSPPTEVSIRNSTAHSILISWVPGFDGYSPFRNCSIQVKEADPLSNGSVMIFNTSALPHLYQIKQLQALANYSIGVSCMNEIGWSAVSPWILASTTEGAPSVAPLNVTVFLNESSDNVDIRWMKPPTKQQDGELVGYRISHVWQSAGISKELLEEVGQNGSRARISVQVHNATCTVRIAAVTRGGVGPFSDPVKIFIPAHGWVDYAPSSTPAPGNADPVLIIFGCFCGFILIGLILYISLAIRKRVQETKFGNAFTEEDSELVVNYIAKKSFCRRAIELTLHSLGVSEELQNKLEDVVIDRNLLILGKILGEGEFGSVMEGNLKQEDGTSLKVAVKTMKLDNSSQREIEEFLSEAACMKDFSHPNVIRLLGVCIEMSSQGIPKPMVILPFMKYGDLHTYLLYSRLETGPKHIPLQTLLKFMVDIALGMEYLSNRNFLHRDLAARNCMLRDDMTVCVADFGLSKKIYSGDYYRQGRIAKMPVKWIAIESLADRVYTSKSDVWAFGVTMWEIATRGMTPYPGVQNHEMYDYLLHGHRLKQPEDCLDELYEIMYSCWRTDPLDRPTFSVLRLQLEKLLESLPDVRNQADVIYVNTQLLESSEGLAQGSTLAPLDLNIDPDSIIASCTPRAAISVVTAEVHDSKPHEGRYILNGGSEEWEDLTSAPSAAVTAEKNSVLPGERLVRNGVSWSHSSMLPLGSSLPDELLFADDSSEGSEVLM

PIP5K3 = PIP5K3 (Homo sapiens, UniProt Q9Y2I7)
PIP5K3, sequence (Q9Y2I7 whole entry): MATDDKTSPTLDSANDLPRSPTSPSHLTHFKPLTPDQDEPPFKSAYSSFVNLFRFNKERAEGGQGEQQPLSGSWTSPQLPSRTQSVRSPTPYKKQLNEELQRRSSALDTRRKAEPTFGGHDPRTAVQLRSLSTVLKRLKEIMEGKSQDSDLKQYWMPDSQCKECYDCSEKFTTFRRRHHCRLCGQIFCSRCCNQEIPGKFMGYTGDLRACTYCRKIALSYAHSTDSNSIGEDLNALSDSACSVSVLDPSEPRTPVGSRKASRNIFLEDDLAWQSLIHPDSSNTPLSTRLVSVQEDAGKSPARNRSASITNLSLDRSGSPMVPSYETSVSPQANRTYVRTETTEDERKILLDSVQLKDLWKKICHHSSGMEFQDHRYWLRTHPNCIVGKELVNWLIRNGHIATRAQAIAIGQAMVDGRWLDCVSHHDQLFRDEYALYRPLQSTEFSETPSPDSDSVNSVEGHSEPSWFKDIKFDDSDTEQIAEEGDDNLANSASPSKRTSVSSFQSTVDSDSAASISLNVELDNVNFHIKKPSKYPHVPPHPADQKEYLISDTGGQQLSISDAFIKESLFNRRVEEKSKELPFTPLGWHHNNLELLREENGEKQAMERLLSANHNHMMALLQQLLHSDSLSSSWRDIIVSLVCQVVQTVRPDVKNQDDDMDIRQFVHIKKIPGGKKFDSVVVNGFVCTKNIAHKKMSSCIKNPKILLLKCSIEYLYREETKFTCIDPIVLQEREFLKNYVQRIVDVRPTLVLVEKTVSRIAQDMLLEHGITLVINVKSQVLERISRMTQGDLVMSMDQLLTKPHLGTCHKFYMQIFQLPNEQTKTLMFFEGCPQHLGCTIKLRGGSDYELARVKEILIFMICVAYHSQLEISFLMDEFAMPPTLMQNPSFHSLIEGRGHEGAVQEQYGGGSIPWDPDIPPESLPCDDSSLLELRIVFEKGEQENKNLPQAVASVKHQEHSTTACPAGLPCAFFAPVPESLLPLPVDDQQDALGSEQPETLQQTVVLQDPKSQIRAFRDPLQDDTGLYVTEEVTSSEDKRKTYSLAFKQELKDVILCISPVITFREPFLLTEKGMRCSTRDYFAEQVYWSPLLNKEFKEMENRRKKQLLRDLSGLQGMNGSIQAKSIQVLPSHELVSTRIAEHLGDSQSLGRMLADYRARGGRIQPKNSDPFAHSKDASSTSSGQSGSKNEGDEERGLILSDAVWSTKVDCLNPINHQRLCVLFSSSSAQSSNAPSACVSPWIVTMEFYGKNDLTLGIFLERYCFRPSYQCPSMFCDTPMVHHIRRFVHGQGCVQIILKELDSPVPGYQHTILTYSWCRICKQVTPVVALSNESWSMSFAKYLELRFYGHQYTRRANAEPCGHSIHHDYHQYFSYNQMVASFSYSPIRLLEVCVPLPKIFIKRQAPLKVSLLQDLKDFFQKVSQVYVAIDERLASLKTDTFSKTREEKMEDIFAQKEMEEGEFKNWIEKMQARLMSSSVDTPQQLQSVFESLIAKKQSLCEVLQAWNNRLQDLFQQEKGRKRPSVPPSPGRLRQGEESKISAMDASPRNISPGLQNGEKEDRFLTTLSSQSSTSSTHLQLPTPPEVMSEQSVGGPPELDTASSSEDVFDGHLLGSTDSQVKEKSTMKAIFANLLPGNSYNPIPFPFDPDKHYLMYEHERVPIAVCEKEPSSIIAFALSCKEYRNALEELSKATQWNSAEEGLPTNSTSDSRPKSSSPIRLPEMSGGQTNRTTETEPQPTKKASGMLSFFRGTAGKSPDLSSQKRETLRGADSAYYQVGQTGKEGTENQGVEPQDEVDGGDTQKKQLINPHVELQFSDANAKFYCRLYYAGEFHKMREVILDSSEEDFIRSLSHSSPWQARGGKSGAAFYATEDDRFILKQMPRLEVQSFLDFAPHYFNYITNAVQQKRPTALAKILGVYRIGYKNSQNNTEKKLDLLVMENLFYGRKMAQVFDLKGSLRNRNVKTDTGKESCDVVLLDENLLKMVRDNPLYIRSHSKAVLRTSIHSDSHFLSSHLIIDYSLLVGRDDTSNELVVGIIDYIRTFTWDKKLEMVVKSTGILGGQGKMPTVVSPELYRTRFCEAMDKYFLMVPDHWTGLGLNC

TTK = target: T3, TTK (Homo sapiens, UniProt P33981)
T3 sequence (P33981 1-857): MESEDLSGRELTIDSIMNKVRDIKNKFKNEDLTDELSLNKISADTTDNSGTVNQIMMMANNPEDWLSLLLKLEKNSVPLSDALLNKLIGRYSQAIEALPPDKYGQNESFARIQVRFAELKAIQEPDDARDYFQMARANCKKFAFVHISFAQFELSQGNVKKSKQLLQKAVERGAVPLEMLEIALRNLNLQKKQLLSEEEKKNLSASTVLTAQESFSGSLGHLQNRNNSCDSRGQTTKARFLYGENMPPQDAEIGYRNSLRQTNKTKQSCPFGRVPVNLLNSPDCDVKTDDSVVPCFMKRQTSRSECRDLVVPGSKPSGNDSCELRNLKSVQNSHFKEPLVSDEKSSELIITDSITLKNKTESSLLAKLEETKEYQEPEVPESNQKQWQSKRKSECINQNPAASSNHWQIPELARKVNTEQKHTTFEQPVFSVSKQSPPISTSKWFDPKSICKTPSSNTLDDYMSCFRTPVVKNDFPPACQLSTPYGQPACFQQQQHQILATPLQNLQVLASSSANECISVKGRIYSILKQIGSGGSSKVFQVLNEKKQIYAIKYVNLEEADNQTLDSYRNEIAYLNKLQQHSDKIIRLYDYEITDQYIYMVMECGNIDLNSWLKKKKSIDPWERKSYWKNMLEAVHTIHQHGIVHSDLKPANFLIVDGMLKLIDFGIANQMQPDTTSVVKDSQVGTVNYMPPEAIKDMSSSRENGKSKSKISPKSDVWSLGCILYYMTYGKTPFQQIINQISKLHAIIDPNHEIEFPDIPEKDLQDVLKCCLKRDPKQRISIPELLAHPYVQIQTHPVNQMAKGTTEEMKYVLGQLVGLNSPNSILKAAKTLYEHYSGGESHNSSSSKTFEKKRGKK

ZAK = ZAK (Homo sapiens, UniProt Q9NYL2)
ZAK, sequence (Q9NYL2 whole entry): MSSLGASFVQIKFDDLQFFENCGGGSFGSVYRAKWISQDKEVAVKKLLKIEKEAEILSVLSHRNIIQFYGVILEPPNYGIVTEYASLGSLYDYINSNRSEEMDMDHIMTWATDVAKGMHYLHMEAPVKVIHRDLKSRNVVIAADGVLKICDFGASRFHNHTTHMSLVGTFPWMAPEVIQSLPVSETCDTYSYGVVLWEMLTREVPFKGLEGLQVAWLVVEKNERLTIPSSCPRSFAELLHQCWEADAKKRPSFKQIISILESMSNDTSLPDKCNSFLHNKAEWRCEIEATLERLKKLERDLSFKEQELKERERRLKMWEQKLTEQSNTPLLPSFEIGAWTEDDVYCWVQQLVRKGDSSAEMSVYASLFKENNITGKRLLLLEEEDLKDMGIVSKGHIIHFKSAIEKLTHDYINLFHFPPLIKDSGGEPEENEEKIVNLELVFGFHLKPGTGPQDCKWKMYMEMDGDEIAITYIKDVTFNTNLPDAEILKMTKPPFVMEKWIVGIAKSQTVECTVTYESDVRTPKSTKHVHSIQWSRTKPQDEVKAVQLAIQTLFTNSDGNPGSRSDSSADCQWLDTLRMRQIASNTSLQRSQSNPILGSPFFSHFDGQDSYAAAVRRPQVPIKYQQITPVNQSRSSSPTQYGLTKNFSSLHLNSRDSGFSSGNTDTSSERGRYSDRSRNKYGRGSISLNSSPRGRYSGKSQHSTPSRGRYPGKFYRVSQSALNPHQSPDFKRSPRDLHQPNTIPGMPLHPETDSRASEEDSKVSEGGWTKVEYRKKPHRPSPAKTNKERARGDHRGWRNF

SMILES	IC50 (AURKA)	IC50 (CAMKK2)	IC50 (CSNK2A2)	IC50 (MAPK9)	IC50 (MERTK)	IC50 (PIP5K3)	IC50 (TTK)	IC50 (ZAK)
CN(C)CC(O)COc1ccc(Nc2ncc([N+](=O)[O-])c(Nc3ccccc3O)n2)cc1.O=C(O)C(F)(F)F (stereo not drawn) [TCMDC-141399]	> 20 µM	5.3 µM and 5.6 µM	0.056 µM and 0.045 µM	> 20 µM	1.1 µM	7.5 µM and 5.3 µM	> 20 µM	> 20 µM
Cl.NCC1(c2nc(-c3ccc(Cl)c(O)c3)c(-c3ccncc3)[nH]2)CCCCC1 [TCMDC-141154]	> 20 µM	> 20 µM	> 20 µM	1.7 µM	9.3 µM	1 µM	> 20 µM	8.6 µM and 5.1 µM
CN1CCN(c2ccc(Nc3ncc(C#N)c(Nc4ccccc4C(N)=O)n3)cc2)CC1.Cl [TCMDC-134116]	≤ 0.032 µM and 0.052 µM	0.36 µM and 0.38 µM	≤ 0.032 µM	1.1 µM and 1 µM	0.63 µM	1.3 µM and 1.5 µM	0.54 µM and 0.44 µM	0.95 µM
